{"source": "patent US20240081377A1", "about": "“USING ORGANOIDS AND/OR SPHEROIDS TO CULTIVATE MEAT” (Orbillion Bio, Inc., priority 2020, published 2024)", "key": {"[1]": {"test_system": "A549 spheroids", "assay": "On-chip drug toxicity screening of A549 spheroids (dye exclusion assay, Hoechst / ethidium homodimer-1)", "assay_type": "cell-based, human", "conditions": "A549 spheroids of all sizes (300-1000 μm), different concentrations, 24 hours", "method": "A549 cells were seeded at a concentration of 1×10^6 cells per ml and cultivated for three days under standard cell culture conditions under bi-directional flow (e.g. using a rocking device). Stock solutions of 10 mM cisplatin (Sigma-Aldrich, Austria) in DMSO and 10 mM doxorubicin (Sigma-Aldrich, Austria) in PBS were prepared. Doxorubicin and cisplatin were dissolved in cell culture medium to yield concentrations of 0.5, 1, 5, 10, 25, 50 and 500 μM for the treatment of A549 spheroids. Cell culture medium within the channels of the devices was replaced with drug containing medium and incubated for 24 hours prior to cell death analyses. One channel on a separate device was used as an untreated control. […] Raw fluorescence signals were processed and dose-response curves were generated by Sigmoidal-4PL non-linear regression analysis.\nLive A549 cell spheroids of different sizes (300 μm, 500 μm, 700 μm, 900 μm, 1000 μm in diameter) were stained with Hoechst; blue and Ethidium homodimer-1; red and treated with different concentrations (100 μM, 10 μM and 1 μM) of CIS, DOX, and CIS:DOX to screen drug toxicity for up to 24 hours following drug treatment. […] Viability of live human A549 cell spheroids of different sizes (measured as a % of the untreated control) was calculated as a function of chemotherapy drug treatment concentration (CIS, DOX, and CIS:DOX). […]"}, "[2]": {"test_system": "spheroids", "assay": "Spheroid expansion (spheroid diameter) following recombinant growth factor treatment", "assay_type": "cell-based", "conditions": "wells 300 μm in diameter, 3 days after treatment", "description": "(§1) FIG. 20A to FIG. 20B illustrates spheroid diameter of cells cultured in wells measuring 900 μm in diameter for 12 days following growth factor treatment with fibroblast growth factor (FGF), hepatocyte growth factor (HGF), and insulin-like growth factor (IGF). More specifically, FIG. 20A depicts spheroid diameter in and FIG. 20B depicts spheroid diameter as a percentage of size increase as compared to control.\nas §1, with “21A” for “20A”, “21B depicts” for “20B illustrates”, “300” for “900”, “21B” for “20B”"}}, "data": [{"molecule": "COc1cccc2c1C(=O)c1c(O)c3c(c(O)c1C2=O)C[C@@](O)(C(=O)CO)C[C@@H]3O[C@H]1C[C@H](N)[C@H](O)[C@H](C)O1", "note": "[DOX, Doxorubicin]", "values": [{"measurement": "viability of A549 cell spheroids (measured as a % of the untreated control)", "setting": "[1]", "value": "decreased sharply"}]}, {"molecule": "HGF: recombinant hepatocyte growth factor", "values": [{"measurement": "spheroid diameter, size increase as compared to control", "setting": "[2]", "value": "largest difference"}]}]}
